Reference: publication PMC6905855, “Agonist-specific voltage-dependent gating of lysosomal two-pore Na^+ channels” (eLife, 2019)
“And” between values parts separate entries of the source, which are not always exact repeats. Identical values can stand only once. “Also recorded” adds a separate entry of the source.

Legend:
[1] = target: T1, surface-expressing mutant TPC2 channel (TPC2^LL/AA) in HEK293 cells (Homo sapiens, UniProt Q8NHX9, L11A/L12A); experiment: Whole-cell recordings of ITPC2-LL/AA; type: cell-based; details: for voltage-dependent inactivation of ITPC2, I1s / 0s: @-140mV, whole-cell
T1 construct: expressed in transfected cells; host or cells: HEK293
Outline: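 HEK293 cells transiently expressing EGFP-tagged human TPC2 L11A/L12A, a plasma-membrane-targeted mutant, recorded 24–36 h post-transfection. Whole-cell patch clamp with fast perfusion of bath solutions; currents digitized at 10 kHz and filtered at 2 kHz.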

[2] = test system: T2, TPC2^K204A in HEK293 cells; experiment: Whole-cell recordings of ITPC2-K204A; type: cell-based, human; details: TPC2^K204A-transfected HEK293 cells
T2 construct: expressed in transfected cells; host or cells: HEK293

hTPC2 = target: T3, hTPC2 (Homo sapiens, UniProt Q8NHX9); experiment: Whole-endolysosome recordings of ITPC2; type: biochemical; details: for Dose-dependent activation of TPC2 (normalized current): individual patches; for inactivation of ITPC2, I500ms / I10ms: @-120mV
T3 construct: expressed in transfected cells; host or cells: Cos1 and HEK293

hTPC1 = target: T4, hTPC1 (Homo sapiens, UniProt Q9ULQ1); experiment: Whole-endolysosome recordings of ITPC1; type: biochemical
T4 construct: expressed in transfected cells; host or cells: Cos1

[3] = test system: endogenous TPCs in WT HAP1 cells; experiment: Whole-endolysosome recordings of endogenous ITPC in WT HAP1 cells; type: biochemical, human
[4] = LyNA1 (300 µM)-induced whole-cell ITPC2-LL/AA, individual
[5] = PI(3,5)P2 0.3 µM, LyNa-VA1.2 100 µM, LyNA1 300 µM, individual tests

T1 sequence (Q8NHX9 whole entry L11A/L12A): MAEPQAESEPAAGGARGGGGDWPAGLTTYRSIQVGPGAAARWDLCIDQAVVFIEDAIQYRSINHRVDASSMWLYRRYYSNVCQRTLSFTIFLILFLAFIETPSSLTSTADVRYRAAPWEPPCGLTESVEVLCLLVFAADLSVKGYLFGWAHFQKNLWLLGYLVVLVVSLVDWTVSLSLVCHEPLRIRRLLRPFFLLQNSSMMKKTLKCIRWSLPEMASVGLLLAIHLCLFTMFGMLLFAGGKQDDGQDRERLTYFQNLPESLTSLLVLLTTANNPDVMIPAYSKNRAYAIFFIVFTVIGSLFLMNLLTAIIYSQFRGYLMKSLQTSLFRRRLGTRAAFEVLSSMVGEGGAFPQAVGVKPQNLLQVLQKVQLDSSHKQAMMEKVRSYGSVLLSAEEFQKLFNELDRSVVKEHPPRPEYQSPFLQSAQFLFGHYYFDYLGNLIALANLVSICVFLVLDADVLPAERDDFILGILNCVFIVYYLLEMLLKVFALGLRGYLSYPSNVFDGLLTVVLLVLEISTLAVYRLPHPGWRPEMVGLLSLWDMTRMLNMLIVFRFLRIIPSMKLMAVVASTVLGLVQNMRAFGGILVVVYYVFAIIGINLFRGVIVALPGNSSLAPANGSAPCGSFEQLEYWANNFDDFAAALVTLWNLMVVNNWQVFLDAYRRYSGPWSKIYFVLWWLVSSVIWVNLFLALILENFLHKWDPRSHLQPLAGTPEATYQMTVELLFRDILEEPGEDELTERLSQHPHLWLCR
T3 sequence (Q8NHX9 whole entry): as the sequence (Q8NHX9 whole entry L11A/L12A) above, with A11L, A12L counted along it

voltage-dependent inactivation of ITPC2, I1s / 0s ([1]; individual recordings): 0.9086 and 1.046 and 0.9409
voltage-dependent inactivation of ITPC2, I1s / 0s ([1]; mean): 0.9653
Px/PNa+, K+ [1, 4]: 0.05625 and 0.0959 and 0.1041
Px/PNa+, Na+ [1, 4]: 0.8393 and 1.008 and 0.9746
cation selectivity of induced whole-endolysosome ITPC2 (in words) (hTPC2): highly selective for Na^+ over K^+
Dose-dependent activation of TPC2 (normalized current) (hTPC2; 10 µM +10nM PI(3,5)P2): 0.03469 and -0.1321 and -0.1628
Dose-dependent activation of TPC2 (normalized current) (hTPC2; 50 µM +10nM PI(3,5)P2): 0.02967 and -0.04581 and -0.07904
Dose-dependent activation of TPC2 (normalized current) (hTPC2; 50 µM, absence of PI(3,5)P2): 0.02084 and 0.03963 and 0.0267
Dose-dependent activation of TPC2 (normalized current) (hTPC2; 100 µM +10nM PI(3,5)P2): 0.3825 and 0.3197 and 0.06652
Dose-dependent activation of TPC2 (normalized current) (hTPC2; 150 µM +10nM PI(3,5)P2): 0.5952 and 0.5358 and 0.2713
Dose-dependent activation of TPC2 (normalized current) (hTPC2; 300 µM +10nM PI(3,5)P2): 0.9432 and 0.8992 and 0.9659
Dose-dependent activation of TPC2 (normalized current) (hTPC2; 300 µM, absence of PI(3,5)P2): 0.9388 and 0.9543
Dose-dependent activation of TPC2 (normalized current) (hTPC2; 400 µM +10nM PI(3,5)P2): 1 (2×) and 1.003
EC50 (hTPC2; + PI(3,5)P2 (10 nM)): 175 ± 19 µM
EC50 (hTPC2; - PI(3,5)P2): 181 ± 6 µM
inactivation of ITPC2, I500ms / I10ms (hTPC2; [5]): 0.9047 and 1.003 and 0.9967 and 0.9738
inactivation of ITPC2, I500ms / I10ms (hTPC2; mean): 0.9697
Rectification index of ITPC2, I+80mV/I-80mV (hTPC2; [5]): 0.903 and 1.02 and 0.912 and 0.8953
Rectification index of ITPC2, I+80mV/I-80mV (hTPC2; PI(3,5)P2 0.3 µM, LyNa-VA1.2 100 µM, LyNA1 300 µM, mean): 0.93 ± 0.03 and 0.9325
activation of whole-endolysosome ITPC2 (in words) (hTPC2; bath application, symmetric Na^+): readily activated ITPC2
I@500ms/I@10ms (current decline at steady state) (hTPC2; voltage-step protocols, at all potentials): ~1.0
effect on whole-endolysosome ITPC1 (in words) (hTPC1): inhibited ITPC1
SMILES: Nc1nc2ccc(OC(F)(F)F)cc2s1 [LyNA1, Riluzole]
Px/PNa+, Ca2+ [1, 4]: 0.09045 and 0.1026 and 0.1022 and 0.09007
activation of whole-cell ITPC2-LL/AA (in words) ([1]; bath application, symmetric Na^+, 100 µM where stated): activated large and linear whole-cell currents
activation of whole-cell ITPC2-K204A (in words) [2]: activated
voltage dependence of TPC2 activation (in words) (hTPC2): voltage independent; also recorded: no apparent voltage-dependent activation
Dose-dependent activation of TPC2 (normalized current) (hTPC2; 100 µM, absence of PI(3,5)P2): 0.1347 and 0.1166 and 0.2034 and 0.258 and 0.1062
Dose-dependent activation of TPC2 (normalized current) (hTPC2; 150 µM, absence of PI(3,5)P2): 0.4553 and 0.5013 and 0.5031 and 0.7594 and 0.3882
Dose-dependent activation of TPC2 (normalized current) (hTPC2; 400 µM, absence of PI(3,5)P2): 0.9725 and 0.9884 and 0.9899 and 0.9935 and 0.9997 and 0.9921
combined effect with PI(3,5)P2 on whole-endolysosome ITPC2 (in words) (hTPC2; PI(3,5)P2 50 nM): additive but not synergistic activation; also recorded: Additive effects
activation of whole-endolysosome ITPC in WT HAP1 cells (in words) [3]: activated whole-endolysosome ITPC in WT HAP1 cells
